Test results from ChEMBL document CHEMBL5608197, “Optimization of pyrazolopyridine 4-carboxamides with potent antimalarial activity for which resistance is associated with the P. falciparum transporter ABCI3” (Eur J Med Chem, 2024).
pEC50: −log10 of the molar value. Converted amounts (≈) assume the structure as drawn.

Key:
Plasmodium falciparum [1] = test: Antiplasmodial activity against asexual blood stage of Plasmodium falciparum 3D7 assessed as inhibition of parasite growth incubated for 72 hrs by LDH assay; type: functional, organism-based; conditions: 3D7, 72 h
[2] = Cytotoxicity against human HepG2 cells assessed as inhibition of cell growth incubated for 48 hrs by CellTiter-Glo luminescence assay; type: toxicity, cell-based
[3] = Intrinsic clearance in human liver microsomes at 1 uM measured for 60 mins by LC-MS/MS analysis; type: ADME, Microsome; conditions: read-out: CLH
[4] = Lipophilicity, elogD of the compound in 1-Octanol/PBS at pH 7.4 at 7.5 uM incubated for 2 hrs by miniaturized shake flask method; type: physicochemical
[5] = Intrinsic clearance in rat hepatocytes at 1 uM measured per million cells for 90 mins by LC-MS/MS analysis; type: ADME, cell-based, Hepatocyte; conditions: read-out: CLH
[6] = Aqueous solubility of the compound in PBS buffer at pH 7.4 at 200 uM incubated for 2 hrs under shaking condition by miniaturized shake flask method; type: physicochemical
Plasmodium falciparum [7] = test: Antiplasmodial activity against Plasmodium falciparum Dd2 infected in erythrocytes assessed as inhibition of parasite growth incubated for 72 hrs by [3H]hypoxanthine incorporation based microbeta counting analysis; type: functional, organism-based; conditions: Dd2, Erythrocyte
Plasmodium falciparum [8] = test: Antiplasmodial activity against multidrug-resistant Plasmodium falciparum Dd2 harboring PI4K-S743F mutant infected in erythrocytes assessed as inhibition of parasite growth incubated for 72 hrs by [3H]hypoxanthine incorporation based microbeta counting analysis; type: functional, organism-based; conditions: Dd2, Erythrocyte
Plasmodium falciparum [9] = test: Antiplasmodial activity against multidrug-resistant Plasmodium falciparum Dd2 harboring DHODH-C276F mutant infected in erythrocytes assessed as inhibition of parasite growth incubated for 72 hrs by [3H]hypoxanthine incorporation based microbeta counting analysis; type: functional, organism-based; conditions: Dd2, Erythrocyte
Plasmodium falciparum [10] = test: Antiplasmodial activity against multidrug-resistant Plasmodium falciparum Dd2 harboring cyt b-I22L mutant infected in erythrocytes assessed as inhibition of parasite growth incubated for 72 hrs by [3H]hypoxanthine incorporation based microbeta counting analysis; type: functional, organism-based; conditions: Dd2, Erythrocyte
Plasmodium falciparum [11] = test: Antiplasmodial activity against multidrug-resistant Plasmodium falciparum Dd2 harboring CARL-I1139K mutant infected in erythrocytes assessed as inhibition of parasite growth incubated for 72 hrs by [3H]hypoxanthine incorporation based microbeta counting analysis; type: functional, organism-based; conditions: Dd2, Erythrocyte
Plasmodium falciparum [12] = test: Antiplasmodial activity against multidrig-resistant Plasmodium falciparum Dd2 harboring eEF2Y-I86N mutant infected in erythrocytes assessed as inhibition of parasite growth incubated for 72 hrs by [3H]hypoxanthine incorporation based microbeta counting analysis; type: functional, organism-based; conditions: Dd2, Erythrocyte
Plasmodium falciparum [13] = test: Antiplasmodial activity against ring stage of Plasmodium falciparum 3D7 expressing ABCI3-HAreg assessed as inhibition of parasite proliferation incubated for 72 hrs in presence of ABCI3 inhibitor, GlcN by SYBR dye based flow cytometry; type: functional, organism-based; conditions: 3D7, 72 h

SMILES | pEC50 (Plasmodium falciparum [1]) | CC50 at 48 h [2] | also measured
Cc1nn(C(C)(C)C)c2nc(C3CC3)cc(C(=O)Nc3ccccc3)c12 | 5.41 | > 10 µM | –
CC(C)(C)n1nc(Cl)c2c(C(=O)N3CCOc4ccccc43)cc(C3CC3)nc21 | 6.59 | > 40 µM | microsomal CLint at 1 µM [3]: 155 µL/min/mg; logD at 2 h, 7.5 µM [4]: > 5.9; hepatocyte CLint at 1 µM [5]: 34 µL/min/1e6 cells; solubility thermodynamic at 2 h, 200 µM [6]: < 2.5 µM
Cc1cc(C)c(NC(=O)c2cc(C)nc3c2c(C)nn3C)c(Cl)c1 | 6.77 | > 40 µM | –
COc1ccccc1NC(=O)c1cc(C2CC2)nc2c1c(C)nn2C(C)(C)C | 5.64 | > 40 µM | –
CC(C)(C)n1nc(Br)c2c(C(=O)N3CCOc4ccccc43)cc(C3CC3)nc21 | 6.81 | > 40 µM | –
CS(=O)(=O)c1ccc(-c2cnc(N)c(-c3ccc(C(F)(F)F)nc3)c2)cc1 [MMV-048] | – | – | pEC50 (Plasmodium falciparum [7]): 7.92; pEC50 (Plasmodium falciparum [8]): 7.05
Cc1nn(C(C)(C)C)c2nc(C3CC3)cc(C(=O)Nc3nnc4ccccn34)c12 | < 5.00 | – | –
Cc1nn(C(C)(C)C)c2nc(C3CC3)cc(C(=O)N3CCCCC3)c12 | 6.20 | > 40 µM | –
Cc1nn(C(C)C)c2nc(C(C)C)cc(C(=O)Nc3nnc4ccccn34)c12 | 6.07 | – | –
Cc1nn(C(C)(C)C)c2nc(C3CC3)cc(C(=O)N3CCOc4cnccc43)c12 | 5.68 | – | –
Cc1nn(C(C)(C)C)c2nc(C3CC3)cc(C(=O)N3CCc4ccccc43)c12 | 5.61 | > 40 µM | –
CCc1nn(C(C)(C)C)c2nc(C3CC3)cc(C(=O)N3CCOc4ccccc43)c12 | 6.54 | > 10 µM | –
Cc1nn(C)c2nc(C3CC3)cc(C(=O)N3CCOc4ccccc43)c12 | < 5.00 | – | –
Cc1nn(C(C)C)c2nc(C3CC3)cc(C(=O)N3CCOc4ccccc43)c12 | 6.51 | > 40 µM | microsomal CLint at 1 µM [3]: 424 µL/min/mg; logD at 2 h, 7.5 µM [4]: 4.5; hepatocyte CLint at 1 µM [5]: > 92 µL/min/1e6 cells; solubility thermodynamic at 2 h, 200 µM [6]: 10 µM (≈ 3.76 µg/mL)
Cc1nn(C(C)(C)C)c2nc(C3CC3)cc(C(=O)N3CCOc4ccc(F)cc43)c12 | 6.89 | 9.67 µM | microsomal CLint at 1 µM [3]: 100 µL/min/mg; logD at 2 h, 7.5 µM [4]: 5.8; hepatocyte CLint at 1 µM [5]: 22 µL/min/1e6 cells; solubility thermodynamic at 2 h, 200 µM [6]: 2.8 µM (≈ 1.14 µg/mL)
Cc1n[nH]c2nc(C3CC3)cc(C(=O)N3CCOc4ccccc43)c12 | < 5.00 | – | –
Cc1nn(C(C)(C)C)c2nc(C3CC3)cc(C(=O)N3CCOCC3)c12 | 5.63 | > 40 µM | –
Cc1cc(Nc2ccc(S(F)(F)(F)(F)F)cc2)n2nc(C(C)(F)F)nc2n1 [DSM-265] | – | – | pEC50 (Plasmodium falciparum [7]): 8.22; pEC50 (Plasmodium falciparum [9]): 7.00
COc1nn(C(C)(C)C)c2nc(C3CC3)cc(C(=O)N3CCOc4ccncc43)c12 | 8.30 | 7.26 µM | microsomal CLint at 1 µM [3]: 423 µL/min/mg; logD at 2 h, 7.5 µM [4]: 5.1; hepatocyte CLint at 1 µM [5]: 87 µL/min/1e6 cells; solubility thermodynamic at 2 h, 200 µM [6]: 19 µM (≈ 7.74 µg/mL)
Cc1cc(C(=O)N2CCOc3ccccc32)c2c(C)nn(C(C)(C)C)c2n1 | 5.25 | > 40 µM | –
Cc1nn(C(C)(C)C)c2nc(C3CC3)cc(C(=O)N3CCNc4ccccc43)c12 | 6.74 | > 40 µM | microsomal CLint at 1 µM [3]: 471 µL/min/mg; logD at 2 h, 7.5 µM [4]: 4.8; hepatocyte CLint at 1 µM [5]: 123 µL/min/1e6 cells; solubility thermodynamic at 2 h, 200 µM [6]: 3.5 µM (≈ 1.36 µg/mL)
CC(C)c1nn(C(C)(C)C)c2nc(C3CC3)cc(C(=O)N3CCOc4ccccc43)c12 | 6.24 | > 40 µM | –
Cc1nn(C(C)(C)C)c2nc(C3CC3)cc(C(=O)N3CCOc4ncccc43)c12 | 5.60 | > 10 µM | –
COc1cc2[nH]c(C)c(-c3ccc(Oc4ccc(OC(F)(F)F)cc4)cc3)c(=O)c2cc1Cl | – | – | pEC50 (Plasmodium falciparum [7]): 7.85; pEC50 (Plasmodium falciparum [10]): 6.92

SMILES | pEC50 (Plasmodium falciparum [1]) | CC50 at 48 h [2] | also measured
CC1CN(C(=O)c2cc(-c3ccccc3)nc3c2cnn3C(C)C)CCO1 (stereo not drawn) | 6.00 | > 40 µM | –
CCc1cc(C(=O)N2CCOc3ccccc32)c2c(C)nn(C(C)(C)C)c2n1 | 6.07 | > 40 µM | –
CC1(C)c2nc(-c3ccc(F)cc3)c(Nc3ccc(F)cc3)n2CCN1C(=O)CN [GANAPLACIDE] | – | – | pEC50 (Plasmodium falciparum [11]): 5.72; pEC50 (Plasmodium falciparum [7]): 7.77
CC(C)(C)n1nc(C2CC2)c2c(C(=O)N3CCOc4ccccc43)cc(C3CC3)nc21 | 7.10 | > 10 µM | –
COc1ccccc1CNC(=O)c1cc(C2CC2)nc2c1c(C)nn2C(C)(C)C | 6.33 | > 40 µM | –
Cc1nn(-c2ccccc2)c2nc(C3CC3)cc(C(=O)N3CCOc4ccccc43)c12 | 5.95 | > 40 µM | –
CC(C)(C)n1nc(-c2ccccc2)c2c(C(=O)N3CCOc4ccccc43)cc(C3CC3)nc21 | 5.66 | > 40 µM | –
COc1nn(C(C)(C)C)c2nc(C3CC3)cc(C(=O)N3CCOc4ccccc43)c12 | 6.91 | > 40 µM | microsomal CLint at 1 µM [3]: 300 µL/min/mg; logD at 2 h, 7.5 µM [4]: > 6.4; hepatocyte CLint at 1 µM [5]: 19 µL/min/1e6 cells; solubility thermodynamic at 2 h, 200 µM [6]: < 2.5 µM
Cc1nn(C(C)(C)C)c2nc(C3CC3)cc(C(=O)N3CCOc4cc(F)ccc43)c12 | 5.98 | > 10 µM | microsomal CLint at 1 µM [3]: 160 µL/min/mg; logD at 2 h, 7.5 µM [4]: 5.9; hepatocyte CLint at 1 µM [5]: 23 µL/min/1e6 cells; solubility thermodynamic at 2 h, 200 µM [6]: < 2.5 µM
Cc1nn(C(C)(C)C)c2nc(-c3ccccc3)cc(C(=O)N3CCOc4ccccc43)c12 | 6.34 | > 40 µM | –
Cc1nn(C(C)(C)C)c2nc(C(C)C)cc(C(=O)N3CCOc4ccccc43)c12 | 6.13 | > 40 µM | –
COc1nn(C(C)C)c2nc(C3CC3)cc(C(=O)N3CCOc4ccncc43)c12 | 7.82 | 28.7 µM | microsomal CLint at 1 µM [3]: > 462 µL/min/mg; logD at 2 h, 7.5 µM [4]: 3.7; hepatocyte CLint at 1 µM [5]: > 92 µL/min/1e6 cells; solubility thermodynamic at 2 h, 200 µM [6]: 161 µM (≈ 63.3 µg/mL)
CC(C)(C)n1ncc2c(C(=O)N3CCOc4ccccc43)cc(C3CC3)nc21 | 6.31 | > 40 µM | –
COc1ccccc1CNC(=O)c1cc(C2CC2)nc2c1cnn2C(C)C | 6.17 | > 40 µM | –
Cc1nn(C(C)(C)C)c2nc(C3CC3)cc(C(=O)N3CCN(C)c4ccccc43)c12 | 6.59 | > 40 µM | microsomal CLint at 1 µM [3]: 387 µL/min/mg; logD at 2 h, 7.5 µM [4]: 5.4; hepatocyte CLint at 1 µM [5]: 65 µL/min/1e6 cells; solubility thermodynamic at 2 h, 200 µM [6]: 3 µM (≈ 1.21 µg/mL)
COc1ccccc1N(C)C(=O)c1cc(C2CC2)nc2c1c(C)nn2C(C)(C)C | 5.63 | > 10 µM | –
COc1cc(C(=O)N2CCOc3ccccc32)c2c(C)nn(C(C)(C)C)c2n1 | 5.98 | > 40 µM | –
Cc1nn(C(C)(C)C)c2nc(C3CC3)cc(C(=O)N3CCN(C)CC3)c12 | 6.26 | > 40 µM | –
Cc1nn(C(C)(C)C)c2nc(C3CC3)cc(C(=O)N3CCOc4cccnc43)c12 | 6.07 | > 10 µM | –
O=C(NCCN1CCCC1)c1cc(-c2ccc(CN3CCOCC3)cc2)nc2ccc(F)cc12 [CABAMIQUINE] | – | – | pEC50 (Plasmodium falciparum [12]): 6.07; pEC50 (Plasmodium falciparum [7]): 9.00
Cc1nn(C(C)(C)C)c2nc(C3CC3)cc(C(=O)N3CCCc4ccccc43)c12 | 6.79 | > 40 µM | microsomal CLint at 1 µM [3]: 277 µL/min/mg; logD at 2 h, 7.5 µM [4]: 5.9; hepatocyte CLint at 1 µM [5]: 45 µL/min/1e6 cells; solubility thermodynamic at 2 h, 200 µM [6]: 2.8 µM (≈ 1.09 µg/mL)
Cc1cc(C)c(NC(=O)c2cc(C3CC3)nc3c2c(C)nn3C(C)(C)C)c(Cl)c1 | 5.95 | > 40 µM | –
CCN(CC)CCCC(C)Nc1ccnc2cc(Cl)ccc12 (stereo not drawn) [CHLOROQUINE] | – | – | pEC50 (Plasmodium falciparum [13]): 7.95
